Marks after values point to notes of the source that are not given here.
How the values were obtained:
S.D. Rats = experiment: Pregnancy termination activity in S.D. rats after a single subcutaneous injection at day 7 of gestation; format: in vivo, Sprague Dawley rats; conditions: single subcutaneous injection on day 7 of gestation; for ED50: Rattus norvegicus, sc, autopsy day 16, read-out: ED50 (dose terminating pregnancy, absence of live foetuses, in 50% of treated animals); for ED50 (dose terminating pregnancy in 50% of treated animals): autopsy day 16
Method: In particular, female Sprague Dawley rats weighing 200-230 g. were mated and the presence of sperm was detected, was considered day one of pregnancy.
Pregnancy was later confirmed at the time of autopsy by the presence of implantation sites in the uterus.
Test compounds dissolved in sesame oil containing 20% benzyl benzoate (or suspended if insoluble), were administered subcutaneously, in a single injection, on day 7 of gestation. The animals were then autopsied on day 16 of pregnancy and the uteri were examined for evidence of pregnancy (implantation sites, foetal resorption or live foetuses), haemorrhage, and evidence of abnormalities of the uterus, placenta or foetuses, for reference see G. Galliani et al. Contraception, 23, 163-180 (198).
These values identify the dose levels which terminate pregnancy (absence of live foetuses) in 50% of the treated animals.

Acute toxicity studies = conditions: in vivo
Method: Acute toxicity studies did show as the lethal doses of compounds (VI), LD50>500 mg/kg, are of three order of magnitude higher than those anti-gestative.

Beagle bitches = experiment: Contragestational effect in Beagle bitches after a single intramuscular dose; format: in vivo; conditions: for Pregnancy arrest (%): single i.m. 5 mg/kg (11.1 μmoles/kg)
Method: The compound was given intramuscularly in one depot site of the thigh muscle of the right hind leg dissolved in sesame oil at the dose of 5 mg/kg (11.1 μmoles/kg , […], 0.2 mL/kg). The anti-gestative effectiveness was ascertained by exploratory laparatomy examining uterine horns where the presence of live or dead foetuses was deduced from the dimension and appearance of each uterine swelling, for methodological reference see G. Galliani et al., J. Small Animal Practice, 25, 211-222 (1984).

[1] = test system: Sheep Red Blood Cells (SRBC); experiment: IgM antibody response to SRBC (direct plaque forming cells in spleen); format: in vivo, B6D2F1 mice; conditions: antigen SRBC, dosing day 0, 8.60 μmoles/Kg/day; vehicle 124 + 18; p < 0.01
Method: (§1) In detail, the Antibody Response to Sheep Red Blood Cells (SRBC) and to Lipo-polysaccharide (LPS), was studied in B6D2F1 mice injected intravenously 10^8 SRBC (day 0). Direct (IgM) and indirect (IgG) plaque forming cells (PFC) were evaluated in the spleen 4 and 10 days later, Jerne et al. Science 140, 405 (1963) and Dresser and Wortis, Nature, 208, 859(1965).

[2] = test system: Lipo-polysaccharide (LPS); experiment: IgM antibody response to LPS (plaque forming cells in spleen); format: in vivo, B6D2F1 mice; conditions: antigen LPS, dosing day 0, 8.60 μmoles/Kg/day; vehicle 10 + 2; p < 0.01
Method: as §1
(§2) Indirect PCF were developed with rabbit anti-serum to mouse gamma globulin. B6D2F1 mice were immunised with 20 μg LPS intra-peritoneally. Four days later, PCF were determined in the spleen by SRBC coated with LPS, Moller, Nature, 207, 1166(1965).

[3] = test system: Sheep Red Blood Cells (SRBC); experiment: IgG antibody response to SRBC (indirect plaque forming cells in spleen); format: in vivo, B6D2F1 mice; conditions: dosing day 0, 2.15 μmoles/Kg/day; vehicle 24 + 3
Method: as §1, §2

SRBC = experiment: Delayed type hypersensitivity (DTH), footpad swelling; format: in vivo, C57B1/6 mice; conditions: dosing day 0, 3.60 μmoles/Kg/day; vehicle 11.4 + 3.7
Method: Delayed Type hypersensitivity (DTH), was carried out in C57B1/6 mice administered subcutaneously 2×10^8 SRBC emulsified in complete Freund's adjuvant. Ten days later an eliciting dose of 10^8 SRBC was inoculated into a footpad. The DTH reaction was recorded 24 hours later by measuring the footpad swelling (Kerckhaert et al, i Cell Immunology, 29, 232, (1977).

[4] = test system: grafts of skin from C3H (H-2^k) donor mice; experiment: Skin graft survival time (C3H donor onto C57B1/6 recipient); format: in vivo, C57B1/6 mice; conditions: dosing days −1, 7, 17.20 μmols/Kg/day; vehicle 10.7 + 0.4
Method: For the Skin Grafting, fitted pinch, grafts of skin from C3H (H-2^k) donor mice were transplanted onto C57B1/6 (H-2^b) recipient mice (Mistrello et al,. 1984) Bandages were removed 7 days later and graft were scored daily by microscopy. Rejection was recorded when no viable epidermis remained. The median survival time (MST) of the grafts, measured as days, was calculated according to Litchfield (1949).

human chorio-carcinoma = experiment: Growth of human chorio-carcinoma transplanted into nude mice; format: in vivo

CCOC(=O)OCc1ccccc1-c1n[nH]c(-c2cccc(OCC)c2)n1 [(XV)]
ED50 (S.D. Rats): 15 mg/kg
ED50 (dose terminating pregnancy in 50% of treated animals) (S.D. Rats): 27.2 µmol/kg

CCOc1cccc(-c2n[nH]c(-c3ccccc3CO)n2)c1 [D, 5-(2-Hydroxymethylphenyl)-3-(3-ethoxy-phenyl)-1H-1,2,4-triazole, reference compound]
ED50 (S.D. Rats): 16 mg/kg
ED50 (dose terminating pregnancy in 50% of treated animals) (S.D. Rats): 54.6 µmol/kg

CCCCCCOC(=O)OCc1ccccc1-c1n[nH]c(-c2cccc(OCC)c2)n1 [(XVI)]
ED50 (S.D. Rats): 5 mg/kg
ED50 (dose terminating pregnancy in 50% of treated animals) (S.D. Rats): 11.8 µmol/kg

CCCCCCCCOC(=O)OCc1ccccc1-c1n[nH]c(-c2cccc(OCC)c2)n1 [(VI)]
ED50 (S.D. Rats): 2 mg/kg
ED50 (dose terminating pregnancy in 50% of treated animals) (S.D. Rats): 4.4 µmol/kg
LD50 (Acute toxicity studies): > 500 mg/kg
Pregnancy arrest (%) (Beagle bitches; administered day 15 of gestation): 80%
Pregnancy arrest (%) (Beagle bitches; administered day 20 of gestation): 100%
Pregnancy arrest (%) (Beagle bitches; administered day 25 of gestation): 100%
Tolerability (Beagle bitches; single intramuscular dose): very well tolerated
Anti-gestative effectiveness (Beagle bitches; single intramuscular dose between day of mating and 25th day of gestation): highly effective
PCF/spleen.10^−3 (mean = S.D.), IgM response [1]: 12 + 3* PCF/spleen.10^−3
PCF/spleen.10^−3 (mean = S.D.), IgM response [2]: 3 + 1* PCF/spleen.10^−3
PFC/SPLEEN.10^−3 (mean + S.D.), IgG response to SRBC [3]: 3 + 3* PFC/SPLEEN.10^−3
FOOTPAD SWELLING UNITS (Mean + S.D.), DTH (SRBC): 5.2 + 1.2** UNITS
MST, days (mean ± S. D.), skin graft median survival time [4]: 15.1 + 0.6* days
Potency compared with methotrexate (human chorio-carcinoma; human chorio-carcinoma transplanted into nude mice): even higher than that displayed by methotrexate
Inhibition of the growth of human chorio-carcinoma (human chorio-carcinoma; transplanted into nude mice): highly effective

CCCCOC(=O)OCc1ccccc1-c1n[nH]c(-c2cccc(OCC)c2)n1 [(XIV)]
ED50 (S.D. Rats): 8 mg/kg
ED50 (dose terminating pregnancy in 50% of treated animals) (S.D. Rats): 20.3 µmol/kg

Source: patent publication USRE38962E1, “Diphenyl-triazole derivatives and their use as anti-gestative immuno-suppressant and anti-tumoral agents” (Geange Ltd., priority 1997, dated 2006)
